We go through 6 compounds from paper PMC8791944, “GLUT3 inhibitor discovery through in silico ligand screening and in vivo validation in eukaryotic expression systems” (Scientific Reports, 2022).

Like-named read-outs stand apart in the source and are kept apart here.

The test system of this test is Caco-2 (colon cancer) cells. Briefly: MTT cancer cell viability assay, Caco-2. The note with it: Homo sapiens. Type of test: cell-based. The protocol: A possible therapeutic application of GLUT3 inhibitors is in oncology, especially for cancers in which GLUT3 is a poor prognosis marker. We tested the effect of GLUT3 inhibitors on the cell viability of several different cancer lines: myeloid leukemia (HL60 and U937), lung cancer (A549), colorectal adenocarcinoma (Caco-2), breast cancer (MCF7), hepatocellular carcinoma (HepG2), and choriocarcinoma (BeWo) cells. GLUT3 inhibitors, at five different concentrations, ranging from 2 to 100 µM, were incubated with cancer cells for 48 h. Then, cell viability was assessed with the MTT assay. […] G3iC and G3iD also affected the leukemia cell lines but at double the concentrations of G3iB and G3iE. […] G3iB had some cytotoxic activity (CC50 < 50 µM) against the highest number of cancer cell lines (HL60, U937, A549, HepG2, and MCF7).
Cancer cell viability in the presence of GLUT3 inhibitors was assayed using the MTT Cell Viability Kit (Biotium Inc, Freemont, CA) according to manufacturer’s instructions. Cancer cells were grown in the corresponding medium, at 37 °C and 5% CO2 in a humidified incubator. The media (Gibco) for leukemia cells (HL60 and U937), A549, MCF7, BeWo, and HepG2 cells were RPMI 1640, Ham’s F-12K, DMEM:F-12, Ham’s F-12K, and EMEM, respectively, all supplemented with 10% (v/v) fetal bovine serum (HyClone). Caco-2 cells were grown in EMEM supplemented with 20% (v/v) fetal bovine serum. Cells were detached from the culture flasks with Accutase (Innovative Cell Technologies, Inc., San Diego, CA) according to manufacturer’s instructions. Cells were seeded in 96-well plates, at a density of ~ 30,000 cells/well (in 100 µl fresh media) and incubated with varying concentrations of GLUT3 inhibitors for 48 h, at 37 °C and 5% CO2 in a humidified incubator. The inhibitors were dissolved in DMSO, at 100× the final concentration, so that 1 µl of the stock inhibitor concentration was added per well, making the final DMSO concentration 1% (v/v). Therefore, controls for 100% cell viability were cells with 1% (v/v) DMSO without the inhibitors. Controls for 0% cell viability were cells treated with 0.3% (v/v) Tween 20. For MTT assay, 10 µl of MTT reagent was added in each well followed by 3–4 h incubation at 37 °C and 5% CO2 in a humidified incubator. After thoroughly mixing in 200 µl DMSO in each well, the plates were put into a plate reader (BioTek Synergy H1), and the absorbances at 570 nm and 630 nm were measured with Gen5 program (BioTek Inc.). The experimental values represent Abs570 nm-Abs630 nm with each inhibitor condition and control being the average of three wells.
Supplementary Figure S8. Effect of GLUT3 inhibitors on the viability of various cancer cell lines. Cell viability was determined by MTT assay in A549 (lung cancer), BeWo (choriocarcinoma), Caco-2 (colon cancer), HepG2 (liver cancer), HL-60 (leukemia), MCF7 (breast cancer), and U937 (histiocytic lymphoma) cell lines. GLUT3 inhibitors at concentrations of 2, 5, 10, 20, 50, and 100 µM were incubated with cells in 96-well plates for 48 hours before the addition of the MTT reagent.

[1] abbreviates: Caco-2, Caco2, 48 h, MTT, read-out: CC50.

For the compound `COc1ccccc1-n1c(/C=C/c2ccc(O)cc2)nc2ccc(Br)cc2c1=O` [G3iB, 6-bromo-2-[(E)-2-(4-hydroxyphenyl)ethenyl]-3-(2-methoxyphenyl)quinazolin-4(3H)-one], the CC50 (in general, the concentration at which the toxic effect on the cells reaches its halfway point) (Caco-2, 48 h) is > 50 µM. Regarding `Cc1cccnc1OC1CCN(c2cc(N3CCCC3CO)ncn2)CC1` (stereo not drawn) [G3iC], the CC50 under setting [1] is > 100 µM. On the same count and under the same terms, under `Cc1ccccc1CN(Cc1nnc(C(C)(C)C)o1)c1ccc2nc(O)[nH]c2c1` [G3iF] stands > 100 µM.

Take `CC(=O)Nc1ccc(S(=O)(=O)Nc2ccc(Nc3cc(N(C)C)nc(C)n3)cc2)cc1` [G3iA, N-(4-{[(4-{[6-(dimethylamino)-2-methylpyrimidin-4-yl]amino}phenyl)amino]sulfonyl}phenyl)acetamide]: the CC50 under setting [1] was > 100 µM. As to `O=C(Nc1cccc(Cl)c1)c1cccc(NC(=O)c2cccc([N+](=O)[O-])c2)c1` [G3iE, N-{3-[(3-chloroanilino)carbonyl]phenyl}-3-nitrobenzamide], the CC50 under setting [1] is > 50 µM. On the same count and under the same terms, under `Cc1cc(NC(=O)CCC2Cc3ccccc3NC2=O)nc(-c2ccccc2)n1` (stereo not drawn) [G3iD] stands > 100 µM.
